{"source": "patent US7592372B2", "about": "“Liquid drug preparations” (Hisamitsu Pharmaceutical Co., Inc., priority 2001, dated 2009)", "assay_type_in_all_cases": "physicochemical", "key": {"[1]": {"test": "Color change by naked eye observation after preservation at 70° C. for seven days; further: key: −: There was no color change in the liquid preparation; ±: There was slight color change in the liquid preparation; +: There was color change in the liquid preparation; ++: There was remarkable color change in the liquid preparation", "description": "(§1) Aqueous solutions containing 8 g of fudostein were adjusted to pH 2-7 using an appropriate amount of phosphoric acid or sodium hydroxide as shown in Table 1. Purified water was added to make the total amount of each solution 100 ml, thereby obtaining liquid fudostein preparations with different pHs. The liquid preparations were preserved at 70° C. for seven days to examine the residual ratio of fudostein in the solutions, color change, and sedimentation. The residual ratio of fudostein was calculated from the amount of fudostein determined by quantitative analysis using HPLC. The color change and sedimentation were evaluated by naked eye observation and rated according to the following standard.\nEvaluation standard for color change:\n(§2) Purified water was added to make the total amount of each solution 100 ml, thereby obtaining liquid fudostein preparations. […]\n(§3) Aqueous solutions containing 8 g of fudostein and D-sorbitol in the amounts shown in Table 5 were adjusted to pH 3.5 by adding phosphoric acid. Purified water was added to make the total amount of each solution 100 ml, thereby obtaining liquid fudostein preparations."}, "[2]": {"test": "Sedimentation by naked eye observation after preservation at 70° C. for seven days", "description": "as §1, with “standard. […] (Results) Aqueous solutions containing 8 g of fudostein and D-sorbitol in the amounts shown in Table 5 were adjusted to pH 3.5 by adding phosphoric acid. Purified water was added to make the total amount of each solution 100 ml, thereby obtaining liquid fudostein preparations.” for “standard.”"}, "[3]": {"test": "Residual ratio of fudostein (HPLC) after preservation at 70° C. for seven days", "description": "as §1, §2, §3"}, "[4]": {"test": "Overall stability of liquid fudostein preparations after preservation at 70° C. for seven days", "conditions": "8 g fudostein/100 ml", "description": "as §1, with “standard. Aqueous solutions containing 8 g of fudostein and D-sorbitol in the amounts shown in Table 5 were adjusted to pH 3.5 by adding phosphoric acid. Purified water was added to make the total amount of each solution 100 ml, thereby obtaining liquid fudostein preparations.” for “standard.”"}, "[5]": {"conditions": "8 g fudostein/100 ml aqueous solution, pH 2.0, 70° C. for seven days"}, "[6]": {"conditions": "8 g fudostein/100 ml aqueous solution, pH 2.5, 70° C. for seven days"}, "[7]": {"conditions": "8 g fudostein/100 ml aqueous solution, pH 3.0, 70° C. for seven days"}, "[8]": {"conditions": "8 g fudostein/100 ml aqueous solution, pH 3.5, 70° C. for seven days"}, "[9]": {"conditions": "8 g fudostein/100 ml aqueous solution, pH 4.0, 70° C. for seven days"}, "[10]": {"conditions": "8 g fudostein/100 ml aqueous solution, pH 5.0, 70° C. for seven days"}, "[11]": {"conditions": "8 g fudostein/100 ml aqueous solution, pH 6.0, 70° C. for seven days"}, "[12]": {"conditions": "8 g fudostein/100 ml aqueous solution, pH 7.0, 70° C. for seven days"}, "[13]": {"conditions": "8 g fudostein/100 ml, D-sorbitol 0%, pH 3.5, 70° C. for seven days"}, "[14]": {"conditions": "8 g fudostein/100 ml, D-sorbitol 10%, pH 3.5, 70° C. for seven days"}, "[15]": {"conditions": "8 g fudostein/100 ml, D-sorbitol 20%, pH 3.5, 70° C. for seven days"}, "[16]": {"conditions": "8 g fudostein/100 ml, D-sorbitol 30%, pH 3.5, 70° C. for seven days"}, "[17]": {"conditions": "8 g fudostein/100 ml, D-sorbitol 40%, pH 3.5, 70° C. for seven days"}, "[18]": {"conditions": "8 g fudostein/100 ml, D-sorbitol 50%, pH 3.5, 70° C. for seven days"}}, "data": [{"smiles": "N[C@@H](CSCCCO)C(=O)O", "note": "[fudostein, S-(3-hydroxypropyl)-L-cysteine]", "values": [{"measurement": "Color change", "setting": "[1]; [5]", "result": "−"}, {"measurement": "Color change", "setting": "[1]; [6]", "result": "−"}, {"measurement": "Color change", "setting": "[1]; [7]", "result": "−"}, {"measurement": "Color change", "setting": "[1]; [8]", "result": "−"}, {"measurement": "Color change", "setting": "[1]; [9]", "result": "−"}, {"measurement": "Color change", "setting": "[1]; [10]", "result": "±"}, {"measurement": "Color change", "setting": "[1]; [11]", "result": "+"}, {"measurement": "Color change", "setting": "[1]; [12]", "result": "++"}, {"measurement": "Color change", "setting": "[1]; [13]", "result": "−"}, {"measurement": "Color change", "setting": "[1]; [14]", "result": "−"}, {"measurement": "Color change", "setting": "[1]; [15]", "result": "−"}, {"measurement": "Color change", "setting": "[1]; [16]", "result": "−"}, {"measurement": "Color change", "setting": "[1]; [17]", "result": "±"}, {"measurement": "Color change", "setting": "[1]; [18]", "result": "+"}, {"measurement": "Sedimentation", "setting": "[2]; [5]", "result": "± (Slight sedimentation was observed.)"}, {"measurement": "Sedimentation", "setting": "[2]; [6]", "result": "± (Slight sedimentation was observed.)"}, {"measurement": "Sedimentation", "setting": "[2]; [7]", "result": "−"}, {"measurement": "Sedimentation", "setting": "[2]; [8]", "result": "−"}, {"measurement": "Sedimentation", "setting": "[2]; [9]", "result": "−"}, {"measurement": "Sedimentation", "setting": "[2]; [10]", "result": "−"}, {"measurement": "Sedimentation", "setting": "[2]; [11]", "result": "−"}, {"measurement": "Sedimentation", "setting": "[2]; [12]", "result": "−"}, {"measurement": "Sedimentation", "setting": "[2]; [13]", "result": "−"}, {"measurement": "Sedimentation", "setting": "[2]; [14]", "result": "−"}, {"measurement": "Sedimentation", "setting": "[2]; [15]", "result": "−"}, {"measurement": "Sedimentation", "setting": "[2]; [16]", "result": "−"}, {"measurement": "Sedimentation", "setting": "[2]; [17]", "result": "+ (Sedimentation was observed.)"}, {"measurement": "Sedimentation", "setting": "[2]; [18]", "result": "+ (Sedimentation was observed.)"}, {"measurement": "Analytical value Residual ratio (%)", "setting": "[3]; [5]", "result": 99.9, "unit": "%"}, {"measurement": "Analytical value Residual ratio (%)", "setting": "[3]; [6]", "result": 100.0, "unit": "%"}, {"measurement": "Analytical value Residual ratio (%)", "setting": "[3]; [7]", "result": 100.7, "unit": "%"}, {"measurement": "Analytical value Residual ratio (%)", "setting": "[3]; [8]", "result": 100.3, "unit": "%"}, {"measurement": "Analytical value Residual ratio (%)", "setting": "[3]; [9]", "result": 101.1, "unit": "%"}, {"measurement": "Analytical value Residual ratio (%)", "setting": "[3]; [10]", "result": 100.1, "unit": "%"}, {"measurement": "Analytical value Residual ratio (%)", "setting": "[3]; [11]", "result": 100.4, "unit": "%"}, {"measurement": "Analytical value Residual ratio (%)", "setting": "[3]; [12]", "result": 99.4, "unit": "%"}, {"measurement": "Analytical value Residual ratio (%)", "setting": "[3]; 8 g fudostein/100 ml, D-sorbitol 0%, pH 3.5 (phosphoric acid), 70° C. for seven days", "result": 99.6, "unit": "%"}, {"measurement": "Analytical value Residual ratio (%)", "setting": "[3]; 8 g fudostein/100 ml, D-sorbitol 10%, pH 3.5 (phosphoric acid), 70° C. for seven days", "result": 99.4, "unit": "%"}, {"measurement": "Analytical value Residual ratio (%)", "setting": "[3]; 8 g fudostein/100 ml, D-sorbitol 20%, pH 3.5 (phosphoric acid), 70° C. for seven days", "result": 99.0, "unit": "%"}, {"measurement": "Analytical value Residual ratio (%)", "setting": "[3]; 8 g fudostein/100 ml, D-sorbitol 30%, pH 3.5 (phosphoric acid), 70° C. for seven days", "result": 99.3, "unit": "%"}, {"measurement": "Analytical value Residual ratio (%)", "setting": "[3]; 8 g fudostein/100 ml, D-sorbitol 40%, pH 3.5 (phosphoric acid), 70° C. for seven days", "result": 99.9, "unit": "%"}, {"measurement": "Analytical value Residual ratio (%)", "setting": "[3]; 8 g fudostein/100 ml, D-sorbitol 50%, pH 3.5 (phosphoric acid), 70° C. for seven days", "result": 100.4, "unit": "%"}, {"measurement": "pH at which the liquid fudostein preparation remains stable", "setting": "[4]; 70° C. for seven days", "result": "≤ 5.0"}, {"measurement": "sugar alcohol concentration at which liquid fudostein preparations are stable", "setting": "[4]; D-sorbitol, pH 3.5, 70° C. for seven days", "result": "≤ 40", "unit": "%"}]}]}
